# “And” between values parts separate entries of the source, which are not always exact repeats. Equal values may be shown once.
# System: 463943-066-T-J2-PDC complex spheroid growth
# Test: Anticancer human tumor 463943-066-T-J2-PDC patient-derived colon adenocarcinoma cell line growth inhibition [Asc]
# Conditions: for viability, T/C: stronger effect = lower value
# Summary of the method: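 Complex solid-tumor spheroids incorporating human endothelial and mesenchymal stem cells received single agents or combinations over half-log dilution ranges anchored to clinical Cmax.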
# 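Note: compound exposure lasted 7 days.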
# 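Throughout, for viability, T/C: 100% = DMSO vehicle control wells.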
smiles,measurement,setting,value
C=CC(=O)N1CCN(c2nc(=O)n(-c3c(C)ccnc3C(C)C)c3nc(-c4c(O)cccc4F)c(F)cc23)C(C)C1 (centres undefined) + CCN1C(C(=O)NC23CCC(C(=O)O)(CC2)CC3)C(c2cccc(Cl)c2F)C2(C(=O)Nc3cc(Cl)ccc32)C12CCCCC2,IC50,"curve of first compound, second compound 0.00949 µM",> 10 µM
same,IC50,"curve of first compound, second compound 0.03 µM",> 10 µM
same,IC50,"curve of first compound, second compound 0.0949 µM",> 10 µM
same,IC50,"curve of first compound, second compound 0.3 µM",> 10 µM
same,IC50,"curve of first compound, second compound 0.949 µM",> 10 µM
same,IC50,"curve of first compound, second compound 3 µM",> 10 µM
same,"viability, T/C","second compound 0.00949 µM, first compound 0.0316 µM",94.4%
same,"viability, T/C","second compound 0.00949 µM, first compound 0.1 µM",96.5%
same,"viability, T/C","second compound 0.00949 µM, first compound 0.316 µM",93%
same,"viability, T/C","second compound 0.00949 µM, first compound 1 µM",107%
same,"viability, T/C","second compound 0.00949 µM, first compound 3.16 µM",104%
same,"viability, T/C","second compound 0.00949 µM, first compound 10 µM",98%
same,"viability, T/C","second compound 0.03 µM, first compound 0.0316 µM",108%
same,"viability, T/C","second compound 0.03 µM, first compound 0.1 µM",96.8%
same,"viability, T/C","second compound 0.03 µM, first compound 0.316 µM",99.9%
same,"viability, T/C","second compound 0.03 µM, first compound 1 µM",103%
same,"viability, T/C","second compound 0.03 µM, first compound 3.16 µM",104%
same,"viability, T/C","second compound 0.03 µM, first compound 10 µM",88.4%
same,"viability, T/C","second compound 0.0949 µM, first compound 0.0316 µM",92.4%
same,"viability, T/C","second compound 0.0949 µM, first compound 0.1 µM",88.6%
same,"viability, T/C","second compound 0.0949 µM, first compound 0.316 µM",91%
same,"viability, T/C","second compound 0.0949 µM, first compound 1 µM",93.2%
same,"viability, T/C","second compound 0.0949 µM, first compound 3.16 µM",97.3%
same,"viability, T/C","second compound 0.0949 µM, first compound 10 µM",86.3%
same,"viability, T/C","second compound 0.3 µM, first compound 0.0316 µM",84.4%
same,"viability, T/C","second compound 0.3 µM, first compound 0.1 µM",84.8%
same,"viability, T/C","second compound 0.3 µM, first compound 0.316 µM",86.2%
same,"viability, T/C","second compound 0.3 µM, first compound 1 µM",85.5%
same,"viability, T/C","second compound 0.3 µM, first compound 3.16 µM",86.7%
same,"viability, T/C","second compound 0.3 µM, first compound 10 µM",80.3%
same,"viability, T/C","second compound 0.949 µM, first compound 0.0316 µM",76.5%
same,"viability, T/C","second compound 0.949 µM, first compound 0.1 µM",77%
same,"viability, T/C","second compound 0.949 µM, first compound 0.316 µM",74%
same,"viability, T/C","second compound 0.949 µM, first compound 1 µM",77%
same,"viability, T/C","second compound 0.949 µM, first compound 3.16 µM",78.2%
same,"viability, T/C","second compound 0.949 µM, first compound 10 µM",77%
same,"viability, T/C","second compound 3 µM, first compound 0.0316 µM",71.7%
same,"viability, T/C","second compound 3 µM, first compound 0.1 µM",73.3%
same,"viability, T/C","second compound 3 µM, first compound 0.316 µM",75.9%
same,"viability, T/C","second compound 3 µM, first compound 1 µM",77.6%
same,"viability, T/C","second compound 3 µM, first compound 3.16 µM",72.5%
same,"viability, T/C","second compound 3 µM, first compound 10 µM",72.5%
O=C(c1cc(Cc2n[nH]c(=O)c3ccccc23)ccc1F)N1CCN(C(=O)C2CC2)CC1,"viability, T/C",compound 0.0316 µM,98.1% and 99.9% and 93.3%
same,"viability, T/C",compound 0.1 µM,98.8% and 91.9% and 78.9%
same,"viability, T/C",compound 0.316 µM,99.5% and 98.5% and 103%
same,"viability, T/C",compound 1 µM,96.7% and 97.9% and 108%
same,"viability, T/C",compound 3.16 µM,103% and 97.2% and 92.4%
same,"viability, T/C",compound 10 µM,92.1% and 91.5% and 97.2%
same,IC50,curve of compound,> 10 µM
C=CC(=O)N1CCN(c2nc(=O)n(-c3c(C)ccnc3C(C)C)c3nc(-c4c(O)cccc4F)c(F)cc23)C(C)C1 (centres undefined),"viability, T/C",compound 0.0316 µM,102% and 108%
same,"viability, T/C",compound 0.1 µM,90.1% and 88.6%
same,"viability, T/C",compound 0.316 µM,93% and 101%
same,"viability, T/C",compound 1 µM,100% and 110%
same,"viability, T/C",compound 3.16 µM,102% and 104%
same,"viability, T/C",compound 10 µM,93.7% and 107%
same,IC50,curve of compound,> 10 µM
CCN1C(C(=O)NC23CCC(C(=O)O)(CC2)CC3)C(c2cccc(Cl)c2F)C2(C(=O)Nc3cc(Cl)ccc32)C12CCCCC2 (centres undefined),"viability, T/C",compound 0.00949 µM,98.6% [middle of 8 runs]
same,"viability, T/C",compound 0.03 µM,96.1% [middle of 8 runs]
same,"viability, T/C",compound 0.0949 µM,88.7% [middle of 8 runs]
same,"viability, T/C",compound 0.3 µM,82.9% [middle of 8 runs]
same,"viability, T/C",compound 0.949 µM,76.8% [middle of 8 runs]
same,"viability, T/C",compound 3 µM,77.5% [middle of 8 runs]
same,IC50,"compound alone, run of 11/07/2022",> 3 µM
same,IC50,curve of compound,> 3 µM
